# According to paper PMC6900016, “Synthesis of Indomorphan Pseudo‐Natural Product Inhibitors of Glucose Transporters GLUT‐1 and ‐3” (Angewandte Chemie (International Ed. in English), 2019):
# Assays:
# [1] = tested on: CHO; assay: cells; parameters: 2-deoxyglucose uptake inhibition, resazurin/diaphorase, mock-transfected CHO cells; settings: Cricetulus griseus, 0.5 h, empty vector
# Method: Resazurin-based 2DG uptake assay (low throughput) The 2DG uptake assay was performed by the Yamamoto et al. procedure.[6] 40000 cells/well were seeded in black CellBIND 96-well plates with clear bottom (Corning) and allowed to attach overnight. Cells were washed three times with KRB buffer (20 mM Hepes, 5 mM KH2PO4, 1 mM MgCl2, 1 mM CaCl2, 136 mM NaCl, 4.7 mM KCl, pH 7.4) containing 0.1% BSA and then incubated with the compounds or vehicle control and 1 mM 2DG for 30 min as described earlier. After washing three times with KRB buffer, the plates were sealed with adhesive aluminum foil and cells were lysed with 60 µL 1% CHAPS in 0.06 M HCl. Subsequently, plates were heated using microplate heater for 15 min at 65°C. After cooling down to room temperature, 20 µL 0.5 M Tris were added to neutralize the acid, before 80 µL of detection enzyme mixture were added. The detection enzyme solution contained 25 µM resazurin sodium salt (Acros), 6 U/mL glucose-6-phosphate dehydrogenase (G8404; Sigma Aldrich), 0.2 U/mL diaphorase from Chlostridium kluyveri (D5540; Sigma Aldrich) and 0.1mM NADP+ (Applichem) in 0.125 mM Tris, pH 8.4 with 0.1% BSA. After incubation for 2 h at room temperature, fluorescence intensity was measured at ex/em 530/590 nm using a Tecan M200 plate reader. Data were normalized to the respective DMSO Transient overexpression of GLUT-1-4 in CHO cells and 2DG assay[7] […]
# [2] = biological target: T1, GLUT-3 (Homo sapiens, UniProt P11169); assay: CETSA/thermal proteome profiling in SW480 lysate (ΔTm […] °C by MS, […] °C by immunoblot, […]); 2DG uptake IC50 in DLD-1 GLUT1(-/-) cells; shift on GLUT-3 overexpression in CHO; format: cell-based
# T1 construct: gene SLC2A3
# T1 sequence (P11169 whole entry): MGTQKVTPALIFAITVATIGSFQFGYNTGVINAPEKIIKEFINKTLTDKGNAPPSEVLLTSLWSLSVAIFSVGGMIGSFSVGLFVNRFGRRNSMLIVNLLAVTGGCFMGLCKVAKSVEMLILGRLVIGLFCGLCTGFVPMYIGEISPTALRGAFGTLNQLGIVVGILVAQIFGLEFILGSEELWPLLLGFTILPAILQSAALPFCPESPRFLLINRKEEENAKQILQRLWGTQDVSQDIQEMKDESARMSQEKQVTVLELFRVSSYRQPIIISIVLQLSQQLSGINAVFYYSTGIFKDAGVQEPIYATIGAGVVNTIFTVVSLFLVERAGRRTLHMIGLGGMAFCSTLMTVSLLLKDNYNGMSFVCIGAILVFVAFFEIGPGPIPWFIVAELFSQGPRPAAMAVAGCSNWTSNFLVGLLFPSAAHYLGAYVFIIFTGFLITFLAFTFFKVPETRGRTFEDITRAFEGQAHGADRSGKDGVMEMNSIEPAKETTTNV
# [3] = tested on: T2, CHO; assay: cells; parameters: 2DG uptake in transfected CHO cells, resazurin/diaphorase fluorescence; settings: Cricetulus griseus, 0.5 h
# T2 construct: transiently transfected with plasmid
# Method: Transient overexpression of GLUT-1-4 in CHO cells and 2DG assay[7] 1x10^6 CHO cells were seeded 10 cm cell culture plates. After overnight incubation, cells were transfected with the different using Lipofectamine 3000 according to the supplier's instructions. Briefly, DNA-lipid SUPPORTING INFORMATION 264 complexes (100 µg plasmid DNA, DNA:lipid ratio 1:2) were prepared in OptiMEM and then added to the cells. In the case of GLUT-4-transfected cells, Insulin (100 µg/mL) was added to the transfection medium. After incubation for 48 h cells were either reseeded (40,000 cell/well) in 96-well plates for monitoring glucose uptake or cells were directly lysed and protein expression was subsequently analysed by means of immunoblotting. In the case of GLUT-4 transfected cells, Insulin (100 µg/mL) was added to the culture medium medium. The 2DG assay was performed as described above (low throughput resazurin-based assay). In the case of GLUT-4 transfected cells, Insulin (100 µg/mL) was added to the buffer. Resazurin-based 2DG uptake assay (low throughput) The 2DG uptake assay was performed by the Yamamoto et al. procedure.[6] 40000 cells/well were seeded in black CellBIND 96-well plates with clear bottom (Corning) and allowed to attach overnight. Cells were washed three times with KRB buffer (20 mM Hepes, 5 mM KH2PO4, 1 mM MgCl2, 1 mM CaCl2, 136 mM NaCl, 4.7 mM KCl, pH 7.4) containing 0.1% BSA and then incubated with the compounds or vehicle control and 1 mM 2DG for 30 min as described earlier. After washing three times with KRB buffer, the plates were sealed with adhesive aluminum foil and cells were lysed with 60 µL 1% CHAPS in 0.06 M HCl. Subsequently, plates were heated using microplate heater for 15 min at 65°C. After cooling down to room temperature, 20 µL 0.5 M Tris were added to neutralize the acid, before 80 µL of detection enzyme mixture were added. The detection enzyme solution contained 25 µM resazurin sodium salt (Acros), 6 U/mL glucose-6-phosphate dehydrogenase (G8404; Sigma Aldrich), 0.2 U/mL diaphorase from Chlostridium kluyveri (D5540; Sigma Aldrich) and 0.1mM NADP+ (Applichem) in 0.125 mM Tris, pH 8.4 with 0.1% BSA. After incubation for 2 h at room temperature, fluorescence intensity was measured at ex/em 530/590 nm using a Tecan M200 plate reader. Data were normalized to the respective DMSO
# [4] = tested on: EFO21; assay: cells; parameters: Cell growth inhibition, sulforhodamine B total protein staining; settings: Homo sapiens, EFO-21; 72 h growth; read-out: Cell growth inhibition IC50/µM
# Procedure, shortened: (§1)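 72 h exposure of a 94-cell-line panel to Glupin; growth measured by sulforhodamine B total-protein staining after TCA fixation (10% adherent, 50% suspension/semi-adherent, 1 h at 4 °C). IC50 derived from growth inhibition.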
# [5] = tested on: HT1080; assay: cells; parameters: Cell growth inhibition, sulforhodamine B total protein staining; settings: Homo sapiens, HT-1080; 72 h growth; read-out: Cell growth inhibition IC50/µM
# Procedure, shortened: as §1
smiles,measurement,setting,value
"CCOC(=O)Cn1c2c(c3ccccc31)C[C@@H]1C[C@H]2C(OC)CN1C(=O)c1cccnc1SC (single isomer, unassigned; (+)) [(+)-5a, Glupin]",IC50,"[1]; pCMV-SPORT6, 2DG uptake",0.0191 ± 0.0029 µM
same,IC50,"[1]; pTCN, 2DG uptake",0.0192 ± 0.0021 µM
same,IC50,[2],0.0114 ± 0.0016 µM
same,IC50,[3]; pCMV-SPORT6-GLUT3,0.068 ± 0.0072 µM
same,IC50,[3]; pTCN-GLUT1,0.162 ± 0.014 µM
same,IC50,[3]; pTCN-GLUT2,0.0197 ± 0.0024 µM
same,IC50,[3]; pTCN-GLUT4,0.0189 ± 0.0032 µM
same,IC50,[4],> 30 µM
same,IC50,[5],0.118 µM
